# Measurements: ChEMBL document CHEMBL1201862, “PubChem BioAssay data set” (2004)
# Active and inactive are the calls of the source.
# Assays:
# [1] = M. tuberculosis growth inhibition, HTS (AID 449762); assay type: functional
# [2] = THP-1 cell cytotoxicity, dose response, cytotoxicity control for non-replicating M. tuberculosis project (AID 489025); assay type: functional
# [3] = HEp-2 cell cytotoxicity, dose response, cytotoxicity control for RSV inhibitor project, HTS (AID 2410); assay type: functional; conditions: human respiratory syncytial virus
# [4] = molecular target: Prothrombin (Homo sapiens, UniProt P00734); assay: Thrombin 1536 HTS Dose Response Confirmation. [Related pubchem assays: 1046 (Thrombin 1536 HTS; hits were confirmed in this assay)]; assay type: functional
# [5] = microbe, parasite or virus in culture; assay type: functional; conditions: Mycobacterium tuberculosis
# [6] = molecular target: Sphingosine 1-phosphate receptor 2 (Homo sapiens, UniProt O95136); assay: Dose Response Cell Based Assay for Agonists of the S1P2 Receptor. [Related pubchem assays: 729, 736, 843 ]; assay type: functional
# Chain of Sphingosine 1-phosphate receptor 2 (O95136 whole entry): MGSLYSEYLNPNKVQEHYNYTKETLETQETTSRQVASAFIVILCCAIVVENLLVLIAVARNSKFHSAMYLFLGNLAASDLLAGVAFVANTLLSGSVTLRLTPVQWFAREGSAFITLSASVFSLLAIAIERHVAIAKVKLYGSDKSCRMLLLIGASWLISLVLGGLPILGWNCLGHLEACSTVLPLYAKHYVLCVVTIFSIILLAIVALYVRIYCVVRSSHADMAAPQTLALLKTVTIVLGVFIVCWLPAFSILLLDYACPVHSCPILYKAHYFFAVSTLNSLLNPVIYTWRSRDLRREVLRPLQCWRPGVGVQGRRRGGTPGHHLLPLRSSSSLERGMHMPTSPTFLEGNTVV
# [7] = HepG2 cell cytotoxicity, dose response, cytotoxicity control, plate reader, dry powder samples (AID 1159569); assay type: functional, cell-based;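 further: inhibitor potency with signal falling toward the positive control level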
# [8] = P. falciparum 3D7-ScDHODH growth inhibitors, dose response, SYBR Green, dry powder samples (AID 1159570); assay type: functional, cell-based;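 further: parasite growth measured after 72 hours of compound exposure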
# [9] = P. falciparum ATP4 D1247Y mutant growth inhibitors, dose response, NITD609-resistant line, SYBR Green, dry powder (AID 1159571); assay type: functional, cell-based;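 further: parasites synchronized at ring stage by sorbitol before testing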
# [10] = P. falciparum Dd2 growth inhibitors, dose response, SYBR Green, dry powder samples (AID 1159566); assay type: functional, cell-based;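 further: potency for growth inhibition with lower SYBR green DNA signal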
# [11] = P. falciparum Dd2 growth inhibitors, dose response, SYBR Green, cherry-picked samples (AID 1159567); assay type: functional, cell-based
# [12] = molecular target: T1, Sentrin-specific protease 8 (Homo sapiens, UniProt Q96LD8); assay type: functional;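 further: luminescence read-out of SENP8 inhibition, dose-response confirmation following an ultra-high-throughput screen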
# T1 sequence (Q96LD8 whole entry): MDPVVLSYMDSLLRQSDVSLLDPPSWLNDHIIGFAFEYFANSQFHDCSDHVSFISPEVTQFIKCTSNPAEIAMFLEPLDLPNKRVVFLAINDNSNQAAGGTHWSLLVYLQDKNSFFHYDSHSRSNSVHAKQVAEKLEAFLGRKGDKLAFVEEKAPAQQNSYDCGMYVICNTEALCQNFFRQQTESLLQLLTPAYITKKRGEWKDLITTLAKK
# [13] = molecular target: T2, Sentrin-specific protease 6 (Homo sapiens, UniProt Q9GZR1); assay type: functional;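 further: Luminescence-based dose-response confirmatory assay of SENP6 inhibition, following up an ultra-high-throughput screen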
# T2 sequence (Q9GZR1 whole entry): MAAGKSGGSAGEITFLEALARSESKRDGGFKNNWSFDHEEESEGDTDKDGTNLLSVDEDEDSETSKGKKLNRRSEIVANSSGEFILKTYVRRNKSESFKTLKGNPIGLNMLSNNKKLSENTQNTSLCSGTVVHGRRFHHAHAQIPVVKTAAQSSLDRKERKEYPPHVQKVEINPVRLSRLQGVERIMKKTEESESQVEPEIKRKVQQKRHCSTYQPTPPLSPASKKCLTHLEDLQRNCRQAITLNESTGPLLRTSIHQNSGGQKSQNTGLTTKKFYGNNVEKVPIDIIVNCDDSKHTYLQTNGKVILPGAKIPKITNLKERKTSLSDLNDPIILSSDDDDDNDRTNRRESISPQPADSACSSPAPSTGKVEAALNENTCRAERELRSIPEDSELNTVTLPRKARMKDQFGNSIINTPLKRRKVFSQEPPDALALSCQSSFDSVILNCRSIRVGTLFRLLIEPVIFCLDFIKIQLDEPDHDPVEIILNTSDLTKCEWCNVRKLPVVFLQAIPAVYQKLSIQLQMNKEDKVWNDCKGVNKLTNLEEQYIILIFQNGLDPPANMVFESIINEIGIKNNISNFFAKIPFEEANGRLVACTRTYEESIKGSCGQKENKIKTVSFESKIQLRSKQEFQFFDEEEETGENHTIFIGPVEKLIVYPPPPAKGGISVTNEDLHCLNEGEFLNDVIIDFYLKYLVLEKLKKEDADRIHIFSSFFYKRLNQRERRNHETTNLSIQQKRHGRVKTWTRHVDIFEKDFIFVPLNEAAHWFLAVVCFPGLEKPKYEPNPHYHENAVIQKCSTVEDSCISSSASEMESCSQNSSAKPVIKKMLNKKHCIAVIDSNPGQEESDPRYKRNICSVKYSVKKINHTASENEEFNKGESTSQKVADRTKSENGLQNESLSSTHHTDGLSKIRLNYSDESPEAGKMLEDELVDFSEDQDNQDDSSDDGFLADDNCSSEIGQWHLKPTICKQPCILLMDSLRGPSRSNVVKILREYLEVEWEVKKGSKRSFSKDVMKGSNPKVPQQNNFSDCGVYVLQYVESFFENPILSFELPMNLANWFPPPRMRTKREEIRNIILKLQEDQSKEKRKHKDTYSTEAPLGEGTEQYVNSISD
# [14] = Luminescence-based cell-based high throughput dose response assay to identify activators of the DAF-12 from the parasite S. stercoralis (ssDAF-12).; assay type: functional
# [15] = molecular target: T3, Oxysterols receptor LXR-beta (Homo sapiens, UniProt P55055); assay: LXR agonists, Gal4 luciferase reporter, dose response, counter-screen for ssDAF-12 agonist project, cell-based, luminescence, HEK293, S. stercoralis campaign (AID 720737); assay type: functional; conditions: read-out: IC50 (the source's name)
# T3 sequence (P55055 whole entry): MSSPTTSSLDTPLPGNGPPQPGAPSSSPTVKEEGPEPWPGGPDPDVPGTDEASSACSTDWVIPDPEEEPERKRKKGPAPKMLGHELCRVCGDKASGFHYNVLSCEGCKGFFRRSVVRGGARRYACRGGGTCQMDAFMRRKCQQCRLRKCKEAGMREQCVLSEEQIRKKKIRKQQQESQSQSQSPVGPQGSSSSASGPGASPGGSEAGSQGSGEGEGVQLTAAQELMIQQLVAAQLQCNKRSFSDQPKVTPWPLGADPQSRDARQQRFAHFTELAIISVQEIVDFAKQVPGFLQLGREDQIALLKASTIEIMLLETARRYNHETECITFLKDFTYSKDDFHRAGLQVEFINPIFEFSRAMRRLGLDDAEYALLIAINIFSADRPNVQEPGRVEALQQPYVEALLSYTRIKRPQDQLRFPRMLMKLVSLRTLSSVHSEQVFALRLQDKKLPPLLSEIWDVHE
# [16] = molecular target: T4, Caspase-3 (Homo sapiens, UniProt P42574); assay type: functional;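 further: Dose-response selectivity test against caspase-3 for candidate inhibitors of sentrin-specific proteases (SENPs)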
# T4 sequence (P42574 whole entry): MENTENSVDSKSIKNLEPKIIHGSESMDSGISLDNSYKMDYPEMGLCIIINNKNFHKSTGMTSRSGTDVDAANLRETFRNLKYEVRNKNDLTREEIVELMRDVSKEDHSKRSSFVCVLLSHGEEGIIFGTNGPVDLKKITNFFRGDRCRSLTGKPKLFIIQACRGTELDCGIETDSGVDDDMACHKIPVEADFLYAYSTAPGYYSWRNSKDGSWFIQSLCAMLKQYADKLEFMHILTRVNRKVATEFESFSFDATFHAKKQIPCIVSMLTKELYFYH
# [17] = molecular target: T5, Sentrin-specific protease 7 (Homo sapiens, UniProt Q9BQF6); assay type: functional;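 further: Luminescence-based dose-response confirmation of ultra-high-throughput screening hits, measuring inhibition of SENP7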
# T5 sequence (Q9BQF6 whole entry): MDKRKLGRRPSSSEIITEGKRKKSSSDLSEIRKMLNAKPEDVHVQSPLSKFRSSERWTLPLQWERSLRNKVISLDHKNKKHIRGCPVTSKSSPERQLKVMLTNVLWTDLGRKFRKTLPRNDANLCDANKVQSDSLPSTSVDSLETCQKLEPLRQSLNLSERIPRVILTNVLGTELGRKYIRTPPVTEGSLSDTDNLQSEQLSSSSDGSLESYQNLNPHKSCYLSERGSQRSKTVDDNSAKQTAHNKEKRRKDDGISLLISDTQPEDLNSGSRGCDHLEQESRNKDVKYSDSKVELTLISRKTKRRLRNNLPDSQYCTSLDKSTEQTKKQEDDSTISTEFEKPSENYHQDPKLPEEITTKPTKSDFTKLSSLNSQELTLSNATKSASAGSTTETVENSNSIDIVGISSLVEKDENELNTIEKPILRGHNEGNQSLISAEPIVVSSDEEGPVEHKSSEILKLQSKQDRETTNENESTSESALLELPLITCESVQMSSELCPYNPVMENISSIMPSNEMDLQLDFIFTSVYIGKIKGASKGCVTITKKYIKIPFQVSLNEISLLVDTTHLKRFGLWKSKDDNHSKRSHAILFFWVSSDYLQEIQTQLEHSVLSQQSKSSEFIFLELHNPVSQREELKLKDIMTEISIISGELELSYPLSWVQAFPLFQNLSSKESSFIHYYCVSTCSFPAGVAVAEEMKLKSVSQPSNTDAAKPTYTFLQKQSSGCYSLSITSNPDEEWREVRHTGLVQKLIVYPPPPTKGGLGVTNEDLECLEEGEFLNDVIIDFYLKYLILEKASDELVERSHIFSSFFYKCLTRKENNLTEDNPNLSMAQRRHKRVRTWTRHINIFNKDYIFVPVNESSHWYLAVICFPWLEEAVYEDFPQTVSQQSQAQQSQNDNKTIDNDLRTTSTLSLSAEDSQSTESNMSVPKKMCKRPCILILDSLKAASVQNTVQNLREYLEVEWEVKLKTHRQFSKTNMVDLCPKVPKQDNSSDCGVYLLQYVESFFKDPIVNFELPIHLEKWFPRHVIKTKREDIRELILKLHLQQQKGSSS
# [18] = molecular target: Voltage-gated inwardly rectifying potassium channel KCNH2 (Homo sapiens, UniProt Q12809); conditions: Potency;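 further: confirmatory quantitative high-throughput screen measuring inhibition of hERG channel activity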
# Chain of Voltage-gated inwardly rectifying potassium channel KCNH2 (Q12809 whole entry): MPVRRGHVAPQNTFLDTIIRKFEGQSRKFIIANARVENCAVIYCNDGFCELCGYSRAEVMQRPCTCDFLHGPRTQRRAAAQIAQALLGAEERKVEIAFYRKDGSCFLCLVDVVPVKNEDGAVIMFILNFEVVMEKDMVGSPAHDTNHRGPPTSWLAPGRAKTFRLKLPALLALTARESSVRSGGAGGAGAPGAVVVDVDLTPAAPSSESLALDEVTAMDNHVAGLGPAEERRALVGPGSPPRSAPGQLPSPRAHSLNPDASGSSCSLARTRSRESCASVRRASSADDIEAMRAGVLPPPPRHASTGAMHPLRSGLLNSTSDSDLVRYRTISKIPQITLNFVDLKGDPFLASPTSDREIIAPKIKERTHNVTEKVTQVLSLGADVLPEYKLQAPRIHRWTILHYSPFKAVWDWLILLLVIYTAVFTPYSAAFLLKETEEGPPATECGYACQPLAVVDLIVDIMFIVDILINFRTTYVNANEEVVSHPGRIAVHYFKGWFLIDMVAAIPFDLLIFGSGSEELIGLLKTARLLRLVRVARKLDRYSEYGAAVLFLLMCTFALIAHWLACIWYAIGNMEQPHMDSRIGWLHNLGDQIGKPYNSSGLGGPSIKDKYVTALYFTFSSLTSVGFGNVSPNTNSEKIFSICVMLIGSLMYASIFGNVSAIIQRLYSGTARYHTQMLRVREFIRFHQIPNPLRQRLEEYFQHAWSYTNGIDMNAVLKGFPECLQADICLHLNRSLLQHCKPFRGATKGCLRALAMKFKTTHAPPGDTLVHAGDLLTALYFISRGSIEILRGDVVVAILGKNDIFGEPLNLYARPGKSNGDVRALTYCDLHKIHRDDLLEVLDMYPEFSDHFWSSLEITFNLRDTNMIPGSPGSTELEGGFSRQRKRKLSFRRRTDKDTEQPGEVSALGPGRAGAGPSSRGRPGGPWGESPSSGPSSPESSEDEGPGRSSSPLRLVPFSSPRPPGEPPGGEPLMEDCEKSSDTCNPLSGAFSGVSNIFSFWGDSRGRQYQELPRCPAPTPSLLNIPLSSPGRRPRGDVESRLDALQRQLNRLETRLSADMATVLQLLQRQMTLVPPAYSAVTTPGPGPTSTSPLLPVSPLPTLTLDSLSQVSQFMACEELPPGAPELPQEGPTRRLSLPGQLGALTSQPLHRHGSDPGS
# [19] = HeLa 4N DNA content increase, dose response, cell-based, IC50 (AID 1117351); assay type: functional
# [20] = system: HEK293; assay: inhibitors of LMP1-driven NF-kB reporter, dose response, cell-based, HEK293, luciferase, cherry-pick (AID 588343); assay type: functional; conditions: Homo sapiens
# [21] = HeLa 2N DNA content increase, dose response, cell-based, IC50 (AID 1117349); assay type: functional
# [22] = molecular target: Paired box protein Pax-8 (Homo sapiens, UniProt Q06710); assay: inhibitors of PAX8-driven TPO luciferase reporter, dose response, RMG-I cells, cherry-pick (AID 687027); assay type: functional, cell-based;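 further: luciferase reporter driven by Pax8 target thyroperoxidase promoter measured by SteadyGlo luminescence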
# Chain of Paired box protein Pax-8 (Q06710 whole entry): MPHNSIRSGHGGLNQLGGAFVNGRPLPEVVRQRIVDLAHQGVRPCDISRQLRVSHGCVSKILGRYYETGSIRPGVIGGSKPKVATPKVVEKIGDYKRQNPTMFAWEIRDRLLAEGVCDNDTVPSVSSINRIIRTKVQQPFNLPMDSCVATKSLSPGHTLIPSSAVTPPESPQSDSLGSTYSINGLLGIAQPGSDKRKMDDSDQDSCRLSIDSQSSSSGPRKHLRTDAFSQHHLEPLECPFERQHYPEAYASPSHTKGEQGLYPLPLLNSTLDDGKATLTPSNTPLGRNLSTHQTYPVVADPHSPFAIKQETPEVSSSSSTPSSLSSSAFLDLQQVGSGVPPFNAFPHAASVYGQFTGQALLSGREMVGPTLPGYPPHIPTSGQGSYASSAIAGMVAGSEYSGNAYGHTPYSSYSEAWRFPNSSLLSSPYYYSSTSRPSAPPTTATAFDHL
# [23] = molecular target: T6, Heat shock factor protein 1 (Mus musculus, UniProt P38532); assay: HSF1 potentiators in luciferase reporter cells, confirmation, cell-based, NIH3T3, luminescence, dose retest (AID 435004); assay type: functional;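 further: stress induced by proteasome inhibitor MG132 added 30 min after compound; luciferase reporter driven by HSF1 response element in NIH3T3 cells; actives raise luminescence as potentiators of the MG132 stress response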
# T6 sequence (P38532 whole entry): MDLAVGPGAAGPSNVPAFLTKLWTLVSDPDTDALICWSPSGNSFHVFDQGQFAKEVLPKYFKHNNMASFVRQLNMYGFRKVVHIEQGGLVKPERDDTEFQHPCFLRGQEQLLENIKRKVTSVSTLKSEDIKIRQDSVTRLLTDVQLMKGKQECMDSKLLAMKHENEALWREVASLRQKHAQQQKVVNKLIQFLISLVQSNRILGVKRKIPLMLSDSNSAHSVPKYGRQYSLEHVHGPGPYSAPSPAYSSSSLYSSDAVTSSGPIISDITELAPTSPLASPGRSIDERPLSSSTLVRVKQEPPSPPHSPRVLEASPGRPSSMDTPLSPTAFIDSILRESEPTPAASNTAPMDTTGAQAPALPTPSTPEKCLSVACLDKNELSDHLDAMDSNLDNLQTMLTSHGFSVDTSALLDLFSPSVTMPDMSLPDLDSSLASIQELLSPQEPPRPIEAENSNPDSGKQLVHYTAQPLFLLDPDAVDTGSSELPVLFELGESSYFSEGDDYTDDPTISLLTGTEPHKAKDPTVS
# [24] = molecular target: Induced myeloid leukemia cell differentiation protein Mcl-1 (Homo sapiens, UniProt Q07820); assay type: functional
# Chain of Induced myeloid leukemia cell differentiation protein Mcl-1 (Q07820 whole entry): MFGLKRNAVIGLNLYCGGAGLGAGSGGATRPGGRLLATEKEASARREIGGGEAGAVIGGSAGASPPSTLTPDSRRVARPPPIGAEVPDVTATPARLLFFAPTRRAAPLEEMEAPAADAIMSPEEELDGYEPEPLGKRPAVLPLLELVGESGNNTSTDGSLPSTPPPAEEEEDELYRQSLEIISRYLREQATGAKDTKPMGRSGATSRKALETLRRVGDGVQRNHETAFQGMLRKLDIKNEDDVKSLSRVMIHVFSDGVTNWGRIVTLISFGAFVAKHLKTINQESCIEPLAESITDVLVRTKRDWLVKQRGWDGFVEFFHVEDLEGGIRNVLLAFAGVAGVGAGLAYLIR
# [25] = molecular target: Ephrin type-A receptor 4 (Mus musculus, UniProt Q03137); assay: inhibitors of EphA4 binding to KYL peptide, primary screen, biochemical, colorimetric, mouse EphA4 (AID 689); assay type: functional
# Chain of Ephrin type-A receptor 4 (Q03137 whole entry): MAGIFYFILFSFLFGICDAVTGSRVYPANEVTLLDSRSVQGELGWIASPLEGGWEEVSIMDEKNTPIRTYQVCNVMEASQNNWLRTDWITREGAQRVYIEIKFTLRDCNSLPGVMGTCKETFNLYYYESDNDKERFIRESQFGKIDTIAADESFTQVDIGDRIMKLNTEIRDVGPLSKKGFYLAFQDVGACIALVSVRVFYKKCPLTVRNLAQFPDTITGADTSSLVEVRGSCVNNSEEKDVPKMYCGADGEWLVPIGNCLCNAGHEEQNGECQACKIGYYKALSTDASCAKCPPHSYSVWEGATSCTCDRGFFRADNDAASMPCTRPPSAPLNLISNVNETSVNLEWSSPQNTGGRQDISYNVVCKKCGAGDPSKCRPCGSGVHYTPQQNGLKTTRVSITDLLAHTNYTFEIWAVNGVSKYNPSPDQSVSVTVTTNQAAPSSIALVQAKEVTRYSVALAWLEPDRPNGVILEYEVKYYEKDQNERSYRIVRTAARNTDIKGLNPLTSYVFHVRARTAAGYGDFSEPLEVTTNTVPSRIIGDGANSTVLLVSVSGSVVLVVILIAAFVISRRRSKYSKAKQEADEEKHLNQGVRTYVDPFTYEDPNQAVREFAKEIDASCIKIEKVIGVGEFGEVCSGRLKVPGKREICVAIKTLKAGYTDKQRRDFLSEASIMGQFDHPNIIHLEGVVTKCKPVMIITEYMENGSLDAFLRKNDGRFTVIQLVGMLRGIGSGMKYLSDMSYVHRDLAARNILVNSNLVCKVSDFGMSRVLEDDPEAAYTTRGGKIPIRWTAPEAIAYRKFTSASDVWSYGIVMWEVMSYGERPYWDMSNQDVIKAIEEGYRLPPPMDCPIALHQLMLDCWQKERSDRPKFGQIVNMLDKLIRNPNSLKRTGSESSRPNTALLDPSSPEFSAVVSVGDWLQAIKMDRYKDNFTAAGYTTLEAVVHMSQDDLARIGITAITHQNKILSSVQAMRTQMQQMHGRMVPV
smiles,measurement,setting,value
CCOC(=O)c1ccc(/N=C2\SC(C(=O)Nc3ccc(C(=O)O)cc3)CC(=O)N2Cc2cccs2)cc1 (configuration not stated),IC50,[1],> 100 µM (active)
same,CC50,[2],> 40 µM (active)
same,CC50,[3],13 µM (active)
Cn1c(SCC(=O)c2ccc3c(c2)NC(=O)CO3)nc2ccccc21,IC50,[4],> 50 µM (not active)
COc1ccc(-c2c(-c3cc(OC)cc(OC)c3)n(C)c3ccc(-c4cc[nH]n4)cc23)cc1,IC50,[1],> 100 µM (active)
same,CC50,[5],> 40 µM (active)
CCOC(=O)c1cc2ccc(OC)c(OC)c2c(=O)s1,EC50,[6],> 50 µM (not active)
Cc1ccc(OC(=O)N(C)C[C@H]2OCc3ccccc3-c3c(n(C)c4ccccc34)C(=O)N([C@H](C)CO)C[C@@H]2C)cc1,AC50,[7],22.9 µM (active)
same,AC50,[8],1.72 µM (active)
same,AC50,[9],1.96 µM (active)
same,AC50,[10],1.71 µM (active)
same,AC50,[11],2.53 µM (active)
Cc1ccc(NC(=O)c2oc3ccccc3c2C)nc1,IC50,[12],> 100 µM (inactive)
same,IC50,[13],85.3 µM (active)
same,IC50,[14],> 67.5 µM (inactive)
same,EC50,[15],> 67.5 µM (inactive)
same,IC50,[16],25.8 µM (active)
same,IC50,[17],7.35 µM (active)
N[C@@H](Cc1ccc(N(CCCl)CCCl)cc1)C(=O)O,AC50,[18],15.8 µM (inconclusive)
same,IC50,[19],5.36 µM (inactive)
same,AC50,[20],10.3 µM (active)
same,IC50,[21],2.26 µM (active)
C[C@H](CO)N1C[C@H](C)[C@H](CN(C)S(=O)(=O)c2cccc(F)c2)OCc2ccccc2-c2c(n(C)c3ccccc23)C1=O,AC50,[7],31.5 µM (active)
same,AC50,[8],1.6 µM (active)
same,AC50,[22],11.3 µM (active)
same,AC50,[9],0.62 µM (active)
same,AC50,[10],0.722 µM (active)
same,AC50,[11],2.07 µM (active)
CCN(CCO)c1nc(SC)nc2c1sc1nc(-c3ccco3)c3c(c12)CCC3,EC50,[23],66.5 µM (active)
same,IC50,[24],1.85 µM (active)
same,IC50,[25],24.1 µM (active)
COc1ccccc1C(=O)n1nc(-c2ccco2)nc1SC,IC50,[4],0.001 µM (active)
